From publication PMC6566782, “Prodrugs for Skin Delivery of Menahydroquinone-4, an Active Form of Vitamin K2(20), Could Overcome the Photoinstability and Phototoxicity of Vitamin K2(20)” (International Journal of Molecular Sciences, 2019)

Columns and labels:
[1] = Photostability in ethanol under artificial sunlight (12,000 lx), LC-MS/MS; format: physicochemical; settings: 1 µM in ethanol
Protocol: The relative irradiance of artificial sunlight at wavelengths of 300 to 800 nm is almost equal to that of natural sunlight, according to the manufacturer. […] MKH-SUC concentration decreased according to an apparent first order rate both with and without shading, although the rate of decrease was accelerated without shading. MKH-DMG and MKH-SUC were more photostable than MK-4 by ca. 50- and 3-fold, respectively.
(§1) Solutions of MK-4 and MKH derivatives in ethanol (1 µM) were irradiated with artificial sunlight (SOLAX 100 W XC-100 B, Seric Ltd., Tokyo, Japan) at 12,000 lx in quartz cells. Illuminance was measured using a digital luminometer (LX-1108, Mother Tool). Irradiation samples (1 µM in ethanol) were irradiated with artificial sunlight at 12,000 lx, and with monochromatic light (279, 341, 373, 404, and 435 nm) using a multi-wavelength irradiation spectrometer (MM 3, Bunkoukeiki Co., Ltd., Tokyo, Japan). Irradiation intensity was measured using an irradiation energy measurement power meter (MM 3, Bunkoukeiki Co., Ltd.).
(§2) LC-MS/MS was performed using an LCMS-8050 Liquid Chromatograph Mass Spectrometer (Shimadzu, Kyoto, Japan) and Shimadzu HPLC System (system controller (CBM-20A), pump (LD-20AD), degasser (DGU-20As), UV detector (SPD-20A), and auto injector (SIL-20AC HT)). Separations were performed on a CAPCELL PAK C18 UG120 (3 μm, 2.0 mm × 100 mm, Shiseido Co., Ltd., Tokyo, Japan) using a mobile phase of 10 mmol/L ammonium acetate and 0.1% acetic acid in methanol and water (97:3) at a flow rate of 0.4 mL/min. Column temperature was maintained at 40 °C. The mass spectrometer was equipped with an electrospray ionization and was run in positive ion mode. Identification and quantitation were based on MS/MS-multiple reaction monitoring mode using transition ions as follows: m/z 445 → 187 for the [M+H]^+ MK-4 adduct, m/z 445 → 187 for the [M + H]^+ chromenol adduct, 619 → 58 for the [M + H]^+ MKH-DMG adduct, m/z 532 → 58 for the [M + H]^+ MKH-mono-DMG adduct, m/z 664 → 187 for the [M + H]^+ MKH-SUC adduct, m/z 564 → 187 for the [M + H]^+ MKH-mono-SUC adduct, and m/z 461 → 81 for the [M + H]^+ MKO adduct.

[2] = Photostability in ethanol under monochromatic light of different wavelengths, LC-MS/MS; format: physicochemical; settings: 1 µM in ethanol, 25 °C
Protocol: To evaluate the effect of irradiation wavelength on photostability of MK-4 and MKH-ester derivatives, 1 μM solutions of MK-4, MKH-DMG, and MKH-SUC in ethanol were irradiated with a xenon light source monochromatic light at 279, 341, 373, 404, or 435 nm, and the concentration of each compound was measured by LC-MS/MS. The log of concentration of each compound was plotted against irradiation energy (Figure 3), and the rates and half-life energies of degradation were obtained from slopes (Table 2). […] Hydrolytic degradations of MKH-DMG and MKH-SUC to their corresponding monoesters were accelerated only at the short wavelength of 279 nm (Figure 3B,C).
as §1, §2

- apparent first order rate constant (k) of degradation ([1]; artificial sunlight 12,000 lx, 25 °C): 8.239 h⁻¹
- concentration change under shading ([1]; shading, 25 °C): unchanged under shading
- main degradation product ([1]; sunlight irradiation (MKH-SUC also under shading)): MK-4 chromenol
- half-life at 1 µM ([1]; ethanol solution in quartz cells, artificial sunlight 12,000 lx, 25 °C, read-out: half-life (t1/2) of degradation (converted)): 5.04 min
- rate constant (k) of degradation ([2]; monochromatic light 279 nm): 0.533 J^−1·cm^2
- rate constant (k) of degradation ([2]; monochromatic light 341 nm): 0.422 J^−1·cm^2
- rate constant (k) of degradation ([2]; monochromatic light 373 nm): 0.151 J^−1·cm^2
- rate constant (k) of degradation ([2]; monochromatic light 435 nm): 0.035 J^−1·cm^2
SMILES: CC(C)=CCC/C(C)=C/CC/C(C)=C/CC/C(C)=C/CC1=C(C)C(=O)c2ccccc2C1=O [MK-4, menaquinone-4, reference compound]
